Experimental findings from patent US7803816B2, “MCH receptor antagonists” (Hoffmann-La Roche Inc., priority 2005, dated 2010) are described below.

Where a name gives a salt, the structure may show the parent alone.

T1 sequence (Q99705 whole entry): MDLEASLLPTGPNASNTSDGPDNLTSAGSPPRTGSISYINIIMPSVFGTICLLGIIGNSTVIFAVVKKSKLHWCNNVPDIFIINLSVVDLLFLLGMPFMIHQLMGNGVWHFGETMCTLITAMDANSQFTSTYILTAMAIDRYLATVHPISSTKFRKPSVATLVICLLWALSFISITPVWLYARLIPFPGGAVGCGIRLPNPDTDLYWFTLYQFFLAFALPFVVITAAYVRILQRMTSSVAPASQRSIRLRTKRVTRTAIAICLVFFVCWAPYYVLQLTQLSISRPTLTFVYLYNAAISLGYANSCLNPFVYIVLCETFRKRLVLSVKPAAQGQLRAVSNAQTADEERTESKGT

One assay addresses T1, recombinant human MCHR1-receptors (Homo sapiens, UniProt Q99705).
T1 construct: expressed in transfected cells
Nature of the assay: MCHR filter binding assay (competition binding). Conditions: membranes from CHO-K1 cells expressing human MCHR1; 0.2 nM [Phe13,[125I]Tyr19]-MCH; read-out: IC50 (nM), in vitro activity (binding assay). The procedure: MCHR Filter Binding Assay
Competition binding assays were performed using membranes from CHO-K1 cells stably expressing the recombinant human MCHR1-receptors. Binding reactions (90 μl, final volume) were carried out at rt by incubating 2.8 μg membranes with 0.2 nM [Phe^13,[^125I]Tyr^19]-MCH (PerkinElmer) in the absence or presence of various concentrations of competing ligands in binding buffer (50 mM HEPES, 2.5 mM CaCl2, 0.05 mM BSA, 1 mM phenanthroline, 0.03 mM Triton X-100). [Phe^13,[^125I]Tyr^19]-MCH was added 15 min following the addition of unlabeled competing ligands, and the reactions incubated for a 1 h period. The reactions were terminated by rapid filtration over pretreated 96-well filter plates (Millipore; MultiScreen 0.65 μm GFB filter plates). Filter Plates were treated for 12 h at 4° C. with a 0.5% polyvinylpyrrolidone solution containing 1% BSA and 0.1% Tween 20, and then washed with an ice-cold solution of 10 mM Tris, pH 7.5 (5×200 μl). The plates were drained following a 5 min incubation with binding buffer (200 μl) at rt. Following termination of the binding reactions, the filters were washed with ice-cold binding buffer (4×200 μl). The filter plates were air dried for 30 min, scintillation cocktail (60 μl) added to each well and radioactivity bound to the plates was determined using a Micro-beta plate reader (Wallace/PerkinElmer).
`Cc1ccc2c(c1)nc(C)n2[C@@H]1CCN(C[C@@H]2Cc3ccc(NC(=O)C(C)C)cc3C2)C[C@H]1OS(C)(=O)=O` [Example 7, Methanesulfonic acid 4-(2,5-dimethyl-benzoimidazol-1-yl)-1-((R)-5-isobutyrylamino-indan-2-ylmethyl)-piperidin-3-yl ester]: the IC50 (as a rule, the concentration that gives 50% inhibition) is 20 to 200 nM.
Regarding `CO[C@@H]1CN(C[C@@H]2Cc3ccc(NC(=O)C(C)C)cc3C2)CC[C@H]1n1c(C)nc2cc(C)ccc21` [Example 47, N-{(R)-2-[(3R,4R)-4-(2,5-Dimethyl-benzoimidazol-1-yl)-3-methoxy-piperidin-1-ylmethyl]-indan-5-yl}-isobutyramide], the IC50 lay in the range of 20 to 200 nM.
For the molecule `CO[C@H]1CN(C[C@@H]2Cc3ccc(NC(=O)C(F)F)cc3C2)CC[C@@H]1n1c(C(C)C)nc2cc(C)ccc21` [Example 67, 2,2-Difluoro-N-{(R)-2-[(3S,4S)-4-(2-isopropyl-5-methyl-benzoimidazol-1-yl)-3-methoxy-piperidin-1-ylmethyl]-indan-5-yl}-acetamide], the IC50 is below 20 nM.
With `Cc1ccc2c(c1)CC(CN1CC[C@@H](n3c(C(C)(C)O)nc4cc(C)ccc43)[C@H](O)C1)C2` (stereo partly drawn) [Example 114, (3R,4R)-4-[2-(1-Hydroxy-1-methyl-ethyl)-5-methyl-benzoimidazol-1-yl]-1-(5-methyl-indan-2-ylmethyl)-piperidin-3-ol], the IC50 lay in the range of 20 to 200 nM.
As to `COc1ccc2c(c1)CC(CN1CC[C@H](n3c(C(C)C)nc4cc(C)ccc43)[C@@H](OC)C1)C2` (stereo partly drawn) [Example 93, 2-Isopropyl-1-[(3S,4S)-3-methoxy-1-(5-methoxy-indan-2-ylmethyl)-piperidin-4-yl]-5-methyl-1H-benzoimidazole dihydrochloride], the IC50 fell in the range of 20 to 200 nM.
`CO[C@@H]1CN(C[C@H]2Cc3ccc(NC(=O)C(C)C)cc3C2)CC[C@H]1n1c(C)nc2cc(C)ccc21` [Example 43, N-{(S)-2-[(3R,4R)-4-(2,5-Dimethyl-benzoimidazol-1-yl)-3-methoxy-piperidin-1-ylmethyl]-indan-5-yl}-isobutyramide]: the IC50 was 20 to 200 nM.
As to `COC(=O)Nc1ccc2c(c1)C[C@H](CN1CCC(n3c(-c4ccccc4)nc4cc(C)ccc43)CC1)C2` [Example 42, {(R)-2-[4-(5-Methyl-2-phenyl-benzoimidazol-1-yl)-piperidin-1-ylmethyl]-indan-5-yl}-carbamic acid methyl ester], the half-maximal inhibitory concentration (IC50) was below 20 nM.
In the case of `CCC(=O)Nc1ccc2c(c1)C[C@H](CN1CC[C@H](n3c(C4CC4)nc4cc(C)ccc43)[C@@H](OC)C1)C2` [Example 60, N-{(R)-2-[(3S,4S)-4-(2-Cyclopropyl-5-methyl-benzoimidazol-1-yl)-3-methoxy-piperidin-1-ylmethyl]-indan-5-yl}-propionamide], the IC50 was below 20 nM.
Take `Cc1ccc2c(c1)ncn2C1CCN(CC2Cc3ccc(NC(=O)C(C)C)cc3C2)CC1` (stereo not shown) [Example 78, N-{2-[4-(5-Methyl-benzoimidazol-1-yl)-piperidin-1-ylmethyl]-indan-5-yl}-isobutyramide]: the IC50 is 20 to 200 nM.
With `Cc1ccc2c(c1)nc(C(C)(C)O)n2C1CCN(C[C@@H]2Cc3ccc(Br)cc3C2)CC1` [Example 96, 2-{1-[1-((R)-5-Bromo-indan-2-ylmethyl)-piperidin-4-yl]-5-methyl-1H-benzoimidazol-2-yl}-propan-2-ol], the IC50 lay in the range of 20 to 200 nM.
As to `Cc1ccc2c(c1)nc(C(C)C)n2[C@@H]1CCN(CC2Cc3ccccc3C2)C[C@H]1O` [Example 83, (3R,4R)-1-Indan-2-ylmethyl-4-(2-isopropyl-5-methyl-benzoimidazol-1-yl)-piperidin-3-ol], the IC50 fell in the range of 200 to 5000 nM.
The same measure, in the same setting: for `CCc1nc2cc(C)ccc2n1C1CCN(C[C@@H]2Cc3ccc(NC(=O)C(C)C)cc3C2)CC1OC` (stereo partly drawn) [Example 61, N-{(R)-2-[4-(2-Ethyl-5-methyl-benzoimidazol-1-yl)-3-methoxy-piperidin-1-ylmethyl]-indan-5-yl}-isobutyramide] the value was below 20 nM.
On to `Cc1cc2ncn(C3CCN(CC4Cc5ccc(F)cc5C4)CC3)c2cc1F` (stereo not shown) [Example 106, 6-Fluoro-1-[1-(5-fluoro-indan-2-ylmethyl)-piperidin-4-yl]-5-methyl-1H-benzoimidazole], for which the IC50 is 20 to 200 nM.
The same measure, in the same setting: for `Cc1cc2nc(C(C)(C)O)n(C3CCN(C[C@H]4Cc5ccc(Br)cc5C4)CC3)c2cc1F` [Example 124, 2-{1-[1-((S)-5-Bromo-indan-2-ylmethyl)-piperidin-4-yl]-6-fluoro-5-methyl-1H-benzoimidazol-2-yl}-propan-2-ol] the value was below 20 nM; for `CCc1nc2cc(C)ccc2n1C1CCN(C[C@@H]2Cc3ccc(NC(=O)C4CC4)cc3C2)CC1OC` (stereo partly drawn) [Example 72, Cyclopropanecarboxylic acid {(R)-2-[4-(2-ethyl-5-methyl-benzoimidazol-1-yl)-3-methoxy-piperidin-1-ylmethyl]-indan-5-yl}-amide], 20 to 200 nM.
As for `Cc1ccc2c(c1)nc(C)n2[C@@H]1CCN(C[C@@H]2Cc3ccc(NC(=O)C(C)C)cc3C2)C[C@H]1OCC(C)(C)O` [Example 21, N-{(R)-2-[(3R,4R)-4-(2,5-Dimethyl-benzoimidazol-1-yl)-3-(2-hydroxy-2-methyl-propoxy)-piperidin-1-ylmethyl]-indan-5-yl}-isobutyramide; dihydrochloride], the IC50 is 20 to 200 nM.
As to `Cc1ccc2c(c1)nc(C)n2C1CCN(C[C@H]2Cc3ccc(NC(=O)C(C)C)cc3C2)CC1` [Example 48, N-{(S)-2-[4-(2,5-Dimethyl-benzoimidazol-1-yl)-piperidin-1-ylmethyl]-indan-5-yl}-isobutyramide], the IC50 is 20 to 200 nM.
For the molecule `CO[C@H]1CN(CC2Cc3cc(F)c(F)cc3C2)CC[C@@H]1n1c(C(C)C)nc2cc(C)ccc21` [Example 100, 1-[(3S,4S)-1-(5,6-Difluoro-indan-2-ylmethyl)-3-methoxy-piperidin-4-yl]-2-isopropyl-5-methyl-1H-benzoimidazole], the IC50 was in the range of 20 to 200 nM.
For the molecule `Cc1ccc2c(c1)nc(C)n2[C@@H]1CCN(C[C@H]2Cc3ccc(NC(=O)C(C)C)cc3C2)C[C@H]1O` [Example 9, N-{(S)-2-[(3R,4R)-4-(2,5-Dimethyl-benzoimidazol-1-yl)-3-hydroxy-piperidin-1-ylmethyl]-indan-5-yl}-isobutyramide; trifluoroacetic acid salt], the concentration for half-maximal inhibition (IC50) lay within 20 to 200 nM.
For the molecule `CO[C@H]1CN(CC2Cc3ccccc3C2)CC[C@@H]1n1c(C)nc2cc(C)ccc21` [Example 81, 1-((3S,4S)-1-Indan-2-ylmethyl-3-methoxy-piperidin-4-yl)-2,5-dimethyl-1H-benzoimidazole], the IC50 was 200 to 5000 nM.
For `CO[C@@H]1CN(C[C@H]2Cc3ccc(C#N)cc3C2)CC[C@H]1n1c(C)nc2cc(C)ccc21` [Example 85, (S)-2-[(3R,4R)-4-(2,5-Dimethyl-benzoimidazol-1-yl)-3-methoxy-piperidin-1-ylmethyl]-indan-5-carbonitrile], the IC50 is below 20 nM.
Turning to `COC1CN(C[C@@H]2Cc3ccc(NC(=O)C(C)C)cc3C2)CCC1n1c(C(C)C)nc2cc(C)ccc21` (stereo partly drawn) [Example 68, N-{(R)-2-[4-(2-Isopropyl-5-methyl-benzoimidazol-1-yl)-3-methoxy-piperidin-1-ylmethyl]-indan-5-yl}-isobutyramide], the half-inhibitory concentration (IC50) was below 20 nM.
In the case of `Cc1ccc2c(c1)nc(-c1ccccc1)n2C1CCN(C[C@@H]2Cc3ccc(NC(=O)C(C)C)cc3C2)CC1` [Example 33, N-{(R)-2-[4-(5-Methyl-2-phenyl-benzoimidazol-1-yl)-piperidin-1-ylmethyl]-indan-5-yl}-isobutyramide], the IC50 is below 20 nM.
In the case of `CO[C@@H]1CN(C[C@H]2Cc3ccc(F)cc3C2)CC[C@H]1n1c(C(C)(C)O)nc2cc(C)ccc21` [Example 108, 2-{1-[(3R,4R)-1-((S)-5-Fluoro-indan-2-ylmethyl)-3-methoxy-piperidin-4-yl]-5-methyl-1H-benzoimidazol-2-yl}-propan-2-ol], the IC50 was in the range of 20 to 200 nM.
Regarding `CCC(=O)Nc1ccc2c(c1)C[C@H](CN1CC[C@@H](n3c(C)nc4cc(F)ccc43)[C@H](OC)C1)C2` [Example 25, N-{(R)-2-[(3R,4R)-4-(5-Fluoro-2-methyl-benzoimidazol-1-yl)-3-methoxy-piperidin-1-ylmethyl]-indan-5-yl}-propionamide; dihydrochloride], the IC50 fell in the range of 20 to 200 nM.
For `CCC(=O)Nc1ccc2c(c1)C[C@H](CN1CC[C@@H](n3c(C(C)C)nc4cc(C)ccc43)[C@H](OC)C1)C2` [Example 45, N-{(R)-2-[(3R,4R)-4-(2-Isopropyl-5-methyl-benzoimidazol-1-yl)-3-methoxy-piperidin-1-ylmethyl]-indan-5-yl}-propionamide], the IC50 lay within 20 to 200 nM.
As for `Cc1ccc2c(c1)nc(C)n2[C@@H]1CCN(C[C@@H]2Cc3ccc(NC(=O)C(C)C)cc3C2)C[C@H]1CO` [Example 36, N-{(R)-2-[4-(2,5-Dimethyl-benzoimidazol-1-yl)-3-hydroxymethyl-piperidin-1-ylmethyl]-indan-5-yl}-isobutyramide], the IC50 is below 20 nM.

The assay is the same for the next values; noted with them: membranes from CHO-K1 cells expressing human MCHR1; 0.2 nM [Phe13,[125I]Tyr19]-MCH; read-out: IC50 (nM), selected in vitro MCH-R binding data.
`Cc1cc2ncn(C3CCN(CC4Cc5ccc(F)cc5C4)CC3)c2cc1F` (stereo not shown) [Example 106, 6-Fluoro-1-[1-(5-fluoro-indan-2-ylmethyl)-piperidin-4-yl]-5-methyl-1H-benzoimidazole]: the IC50 was determined as 194 nM.
